Literature values, collected in patent US20110319370A1, “Combination Hormone Therapy for the Eye” (DUQUESNE UNIVERSITY OF THE, priority 2010, published 2011).
Converted amounts (≈) assume the structure as drawn.

Tests used:
[1] = system: newborn rats treated with buthionine sulfoximine (BSO); conditions: cataracts develop by age 16 days, reduced from 100% without melatonin

solubility in aqueous media (aqueous media): 2.4 mg/mL (≈ 10.3 mM) | solubility in organic solvents (organic solvents): 140.5 mg/mL (≈ 605 mM)
SMILES: COc1ccc2[nH]cc(CCNC(C)=O)c2c1 [Melatonin]
cataract incidence [1]: 6.2%
